In patent US20250144067A1, “PERSONALIZED STARVATION THERAPY FOR CANCER” (Faeth Therapeutics, Inc., priority 2021, published 2025):
Structures can show the parent of a compound that is named as a salt.

Columns and labels:
[1] = test system: NCI-H292 lung cancer cells; test: FDA drug screening, complete media vs cholesterol-free media with simvastatin (TABLE 2); format: cell-based, human; conditions: for Cholesterol-free media + simvastatin (0.04 μM) / Complete Media: NCI-H292 cells
[2] = test system: NCI-H292 lung cancer cells; test: FDA drug screening, complete media vs cholesterol-free media without statin (TABLE 1); format: cell-based, human
[3] = FDA drug library screen, cholesterol-free media with simvastatin 0.04 μM
[4] = FDA drug library screen, complete media
[5] = complete media vs cholesterol-free media + simvastatin (0.04 μM), >0 enhanced anti-cancer activity, about 0 neutral, <0 antagonist
[6] = Complete minus Cholesterol-free, >0 enhanced anti-cancer activity, about 0 neutral, <0 antagonist
[7] = NCI-H292 cells, cholesterol-free media without statin
[8] = Complete minus Cholesterol-free, greater than 0 enhanced anti-cancer activity, about 0 neutral, below 0 antagonist
[9] = NCI-H292 cells, FDA drug library screen, cholesterol-free media without statin
[10] = NCI-H292 cells, FDA drug library screen, complete media
[11] = NCI-H292 cells, cholesterol-free media without statin, FDA drug library screen
[12] = NCI-H292 cells, complete media, FDA drug library screen
[13] = cholesterol-free media with simvastatin 0.04 μM, FDA drug library screen (TABLE 2)
[14] = complete media, FDA drug library screen (TABLE 2)
[15] = complete media minus cholesterol-free media + simvastatin (0.04 μM), >0 enhanced anti-cancer activity, about 0 neutral, <0 antagonist
[16] = complete media minus cholesterol-free media + simvastatin, >0 enhanced anti-cancer activity, about 0 neutral, <0 antagonist
[17] = drug in cholesterol-free media with simvastatin 0.04 μM
[18] = Complete minus Cholesterol-free, greater than 0 enhanced anti-cancer activity, about 0 neutral, below 0 antagonists
[19] = NCI-H292 cells in cholesterol-free media without statin
[20] = NCI-H292 cells in complete media
[21] = complete media vs cholesterol-free media + simvastatin (0.04 μM), […]
[22] = complete vs cholesterol-free media, […]
[23] = complete vs cholesterol-free media, greater than 0 enhanced anti-cancer activity, about 0 neutral, below 0 antagonists
[24] = complete media minus cholesterol-free media + simvastatin, […]
[25] = complete vs cholesterol-free media, >0 enhanced anti-cancer activity, about 0 neutral, <0 antagonist
[26] = Complete minus Cholesterol-free, […]
[27] = cholesterol-free media with simvastatin 0.04 μM, cell growth value in FDA drug screen
[28] = complete media, cell growth value in FDA drug screen

Row | Structure (SMILES) | Cholesterol-free media + simvastatin (0.04 μM) [1, 3] | Complete Media [1, 4] | Difference [1, 5] | Difference [2, 8] | Cholesterol-free [2, 9] | Complete [2, 10] | Cholesterol-free [2, 11] | Complete [2, 12] | other results
1 | C=CC(=O)Nc1cc(Nc2nccc(-c3cn(C4CC4)c4ccccc34)n2)c(OC)cc1N(C)CCN(C)C [Almonertinib] | 0.4298 | 0.2855 | −0.14 | – | – | – | – | – | Difference [2, 6]: −0.19; Cholesterol-free [2, 7]: 0.4646; Complete ([2]; NCI-H292 cells, complete media): 0.2735
2 | Cn1c(=O)cc(N2CCC[C@@H](N)C2)n(Cc2ccccc2C#N)c1=O.O=C(O)c1ccccc1 [Alogliptin (Benzoate)] | 1.087 | 0.9402 | −0.15 | −0.08 | 0.8854 | 0.8074 | – | – | –
3 | Cc1[nH]cnc1CN1CCc2c(c3ccccc3n2C)C1=O [Alosetron (Hydrochloride)] | 0.9241 | 0.826 | −0.10 | – | – | – | 1.398 | 1.45 | Difference [2, 6]: 0.05
4 | Cc1nc(NC(=O)N2CCC[C@H]2C(N)=O)sc1-c1ccnc(C(C)(C)C(F)(F)F)c1 [Alpelisib] | – | – | – | – | – | – | 0.497 | 0.5335 | Cholesterol-free media + simvastatin (0.04 μM) [1, 13]: 0.5514; Complete Media [1, 14]: 0.5502; Difference [1, 15]: 0.00; Difference [2, 6]: 0.04
5 | C[C@]12CC[C@@H]3c4ccc(O)cc4CC[C@H]3[C@@H]1CC[C@H]2O [Alpha-Estradiol] | 1.11 | 1.408 | – | −0.14 | 0.998 | 0.8561 | – | – | Difference [1, 16]: 0.30
6 | C=CCc1ccccc1OCC(O)CNC(C)C (centres unmarked) [Alprenolol (hydrochloride)] | 1.228 | – | −0.08 | −0.15 | 1.198 | 1.044 | – | – | –
7 | CN(C)c1nc(N(C)C)nc(N(C)C)n1 [Altretamine] | – | – | −0.17 | – | – | – | 0.9853 | 0.9434 | Cholesterol-free media + simvastatin (0.04 μM) [1, 17]: 1.135; Complete Media ([1]; drug in complete media): 0.9636; Difference [2, 6]: −0.04
8 | C[C@H]1CN(C[C@H](Cc2ccccc2)C(=O)NCC(=O)O)CC[C@@]1(C)c1cccc(O)c1 [Alvimopan (dihydrate)] | – | – | −0.27 | – | – | – | – | – | Cholesterol-free media + simvastatin (0.04 μM) ([1]; FDA library drug in cholesterol-free media with simvastatin 0.04 μM): 1.255; Complete Media ([1]; FDA library drug in complete media): 0.9864; Difference [2, 18]: −1.02; Cholesterol-free [2, 19]: 1.958; Complete [2, 20]: 0.9383
9 | NC12CC3CC(CC(C3)C1)C2 [Amantadine (hydrochloride)] | – | – | – | – | – | – | 0.9565 | 1.419 | Cholesterol-free media + simvastatin (0.04 μM) [1, 17]: 1.14; Complete Media ([1]; drug in complete media): 0.9614; Difference [1, 21]: −0.18; Difference [2, 22]: 0.46
10 | COC(c1ccccc1)(c1ccccc1)[C@H](Oc1nc(C)cc(C)n1)C(=O)O [Ambrisentan] | 1.296 | 1.497 | – | −0.16 | 1.13 | 0.9703 | – | – | Difference [1, 16]: 0.20
11 | Nc1c(Br)cc(Br)cc1CN[C@H]1CC[C@H](O)CC1 [Ambroxol (hydrochloride)] | – | – | – | – | – | – | – | – | Cholesterol-free media + simvastatin (0.04 μM) [1, 13]: 1.005; Complete Media [1, 14]: 0.9822; Difference [1, 15]: −0.02; Cholesterol-free [2, 7]: 1.285; Complete ([2]; NCI-H292 cells, complete media): 0.8347; Difference [2, 23]: −0.45
12 | Nc1c(Br)cc(Br)cc1CN[C@H]1CC[C@H](O)CC1 [Ambroxol] | 1.121 | 0.9656 | −0.16 | – | – | – | – | – | Difference [2, 6]: −0.22; Cholesterol-free [2, 7]: 1.134; Complete ([2]; NCI-H292 cells, complete media): 0.9121
13 | CC(=O)OCC(=O)[C@@]12OC3(CCCC3)O[C@@H]1C[C@H]1[C@@H]3CCC4=CC(=O)C=C[C@]4(C)[C@@]3(F)[C@@H](O)C[C@@]12C [Amcinonide] | 0.5029 | 0.766 | – | −0.16 | 1.081 | 0.9188 | – | – | Difference [1, 16]: 0.26
14 | Cc1cccc(C)c1N(CC(=O)Nc1ccc(-c2ncon2)cc1)C(=O)C1CCS(=O)(=O)CC1 [Amenamevir] | 0.9047 | 1.06 | – | −0.08 | 0.9508 | 0.8718 | – | – | Difference [1, 16]: 0.16
15 | COS(=O)(=O)[O-].COc1cc(N)cn[n+]1-c1ccccc1 [Amezinium (methylsulfate)] | 1.322 | 1.744 | – | – | – | – | 1.242 | 1.933 | Difference [1, 24]: 0.42; Difference [2, 22]: 0.69
16 | Nc1c(CC(=O)O)cccc1C(=O)c1ccccc1 [Amfenac (Sodium Hydrate)] | – | – | – | – | – | – | 1.155 | 1.799 | Cholesterol-free media + simvastatin (0.04 μM) [1, 13]: 0.8959; Complete Media [1, 14]: 0.8462; Difference [1, 15]: −0.05; Difference [2, 25]: 0.64
17 | Nc1ccncc1N [Amifampridine] | – | – | −0.23 | – | – | – | – | – | Cholesterol-free media + simvastatin (0.04 μM) [1, 17]: 1.299; Complete Media ([1]; drug in complete media): 1.071; Cholesterol-free [2, 7]: 1.476; Complete ([2]; NCI-H292 cells, complete media): 1.141; Difference [2, 23]: −0.33
18 | NCCCNCCSP(=O)(O)O [Amifostine] | – | – | – | −0.17 | 1.387 | 1.213 | – | – | Cholesterol-free media + simvastatin (0.04 μM) [1, 13]: 0.9829; Complete Media [1, 14]: 0.9429; Difference [1, 15]: −0.04
19 | NCC[C@H](O)C(=O)N[C@@H]1C[C@H](N)[C@@H](O[C@H]2O[C@H](CN)[C@@H](O)[C@H](O)[C@H]2O)[C@H](O)[C@H]1O[C@H]1O[C@H](CO)[C@@H](O)[C@H](N)[C@H]1O [Amikacin (disulfate)] | 0.8392 | 1.245 | – | – | 0.9569 | 0.8685 | – | – | Difference [1, 24]: 0.41; Difference [2, 26]: −0.09
20 | N=C(N)NC(=O)c1nc(Cl)c(N)nc1N [Amiloride (hydrochloride)] | 1.016 | 0.8717 | −0.14 | −0.17 | 1.642 | 1.47 | – | – | –
21 | N=C(N)NC(=O)c1nc(Cl)c(N)nc1N [Amiloride hydrochloride dihydrate] | – | – | −0.16 | – | – | – | 0.9043 | 1.06 | Cholesterol-free media + simvastatin (0.04 μM) [1, 17]: 1.232; Complete Media ([1]; drug in complete media): 1.07; Difference [2, 25]: 0.16
22 | Nc1ccc(C(=O)NCC(=O)[O-])cc1.[Na+] [Aminohippurate (sodium)] | – | – | – | – | – | – | – | – | Cholesterol-free media + simvastatin (0.04 μM) [1, 17]: 1.368; Complete Media ([1]; drug in complete media): 1.199; Difference [1, 21]: −0.17; Difference [2, 26]: −0.25; Cholesterol-free [2, 7]: 1.249; Complete ([2]; NCI-H292 cells, complete media): 0.9961
23 | Cn1c(=O)c2[nH]cnc2n(C)c1=O [Aminophylline] | – | – | – | −0.14 | 0.9006 | 0.7581 | – | – | Cholesterol-free media + simvastatin (0.04 μM) [1, 13]: 0.918; Complete Media [1, 14]: 0.8588; Difference [1, 15]: −0.06
24 | CCCCc1oc2ccccc2c1C(=O)c1cc(I)c(OCCN(CC)CC)c(I)c1 [Amiodarone (hydrochloride)] | – | – | – | – | – | – | – | – | Cholesterol-free media + simvastatin (0.04 μM) [1, 27]: 1.081; Complete Media [1, 28]: 1.107; Difference [1, 16]: 0.03; Difference [2, 18]: −0.67; Cholesterol-free [2, 19]: 1.555; Complete [2, 20]: 0.8858
25 | CCN1CCCC1CNC(=O)c1cc(S(=O)(=O)CC)c(N)cc1OC (centres unmarked) [Amisulpride] | – | – | – | – | – | – | 1.175 | 1.349 | Cholesterol-free media + simvastatin (0.04 μM) [1, 27]: 0.8703; Complete Media [1, 28]: 0.9333; Difference [1, 16]: 0.06; Difference [2, 25]: 0.17
26 | CN(C)CCC=C1c2ccccc2CCc2ccccc21 [Amitriptyline (hydrochloride)] | 0.9551 | 0.8184 | −0.14 | – | – | – | 0.8567 | 1.344 | Difference [2, 25]: 0.49
27 | CC(C)c1ccc2oc3nc(N)c(C(=O)O)cc3c(=O)c2c1 [Amlexanox] | 0.7766 | 1.161 | – | – | – | – | – | – | Difference [1, 16]: 0.38; Cholesterol-free [2, 7]: 1.264; Complete ([2]; NCI-H292 cells, complete media): 0.8551; Difference [2, 23]: −0.41
28 | CCOC(=O)C1=C(COCCN)NC(C)=C(C(=O)OC)C1c1ccccc1Cl (centres unmarked) [Amlodipine] | 1.424 | 1.705 | – | – | – | – | 0.797 | 1.434 | Difference [1, 16]: 0.28; Difference [2, 25]: 0.64
